The results in this text go back to patent US10017509B2, “Macrocylic pyrimidine derivatives” (Janssen Pharmaceutica NV, priority 2014, dated 2018).

Where only a bound is given, the exact number is not on record here.

The target of experiment [1] is T1, EF2K (Homo sapiens, UniProt O00418).
T1 construct: host or cells: LN-229 cell lysate
T1 sequence (O00418 1-725): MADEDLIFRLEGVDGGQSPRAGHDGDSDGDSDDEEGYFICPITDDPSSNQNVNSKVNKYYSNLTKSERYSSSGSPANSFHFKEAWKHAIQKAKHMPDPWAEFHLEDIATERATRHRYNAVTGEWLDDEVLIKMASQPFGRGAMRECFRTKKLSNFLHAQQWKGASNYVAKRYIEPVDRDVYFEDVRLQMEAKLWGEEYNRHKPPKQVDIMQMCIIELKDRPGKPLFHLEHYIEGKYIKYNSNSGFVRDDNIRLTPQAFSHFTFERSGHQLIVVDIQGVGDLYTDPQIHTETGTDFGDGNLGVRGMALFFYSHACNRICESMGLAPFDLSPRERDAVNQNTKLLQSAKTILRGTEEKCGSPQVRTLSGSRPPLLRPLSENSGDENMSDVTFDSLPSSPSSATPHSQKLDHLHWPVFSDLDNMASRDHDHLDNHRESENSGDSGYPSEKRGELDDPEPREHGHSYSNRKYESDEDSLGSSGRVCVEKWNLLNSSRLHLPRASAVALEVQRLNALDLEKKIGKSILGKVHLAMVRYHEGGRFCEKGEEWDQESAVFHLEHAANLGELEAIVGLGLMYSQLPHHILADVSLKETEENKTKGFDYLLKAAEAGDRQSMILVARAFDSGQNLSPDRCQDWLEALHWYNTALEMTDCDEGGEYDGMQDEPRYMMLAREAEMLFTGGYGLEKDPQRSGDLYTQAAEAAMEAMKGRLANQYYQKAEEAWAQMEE
The experiment can be described thus: Biochemical EF2K lysate-based kinase assay (AlphaLISA p-eEF2 Thr56). Particulars: pIC50 = -log IC50 (M), read-out: eEF2K_C_alphalisa pIC50 (converted). A digest of the protocol:
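LN-229 glioblastoma lysate supplied both EF2K and eEF2 substrate; compound incubated 15 min at room temperature in pH 6.6 buffer with 10 mM Mg2+ and 10 mM ATP. EDTA-stopped; phospho-eEF2 Thr56 quantified by AlphaLISA sandwich, final read after overnight. Values as pIC50.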
(In general: Alpha assays give light when donor and acceptor beads are brought close together.)

Experiment [2] deals with Vps34 (PIK3C3 lipid kinase) (Homo sapiens, UniProt Q8NEB9). The experiment can be described thus: Biochemical Vps34 lipid kinase assay (ADP-Glo). Particulars: for remaining activity at 1 µM: 1 h, read-out: VPS34_1microM_% of cntrl; for IC50: serial half-log dilution 10 μM to 0.3 nM, pIC50 = -log IC50 (M). A digest of the protocol:
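ADP-Glo luminescence assay of PIK3C3 (7.6 nM) with 50 µM substrate and 20 µM ATP (apparent Km) in HEPES pH 7.5, 100 mM NaCl, 3 mM MnCl2, CHAPS, DTT; 60 min, 30 °C. Single dose 1 µM (residual activity vs DMSO) or half-log series 10 µM-0.3 nM giving pIC50.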
On the technique in general: ADP-Glo first removes unused ATP, then detects ADP through luciferase.

Experiment [3] addresses T1, EF2K. The experiment can be described thus: EF2K cell-based assay (P-EF2 AlphaLISA, 2-deoxyglucose stimulated MCF10A cells). Particulars: 2.5 mM 2-deoxyglucose stimulated, P-EF2 Thr56, pIC50 = -log IC50 (M), read-out: eEF2K_C_PThr56 pIC50 (converted). Summed up:
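MCF10A cells, after 24 h culture, treated 1 h with compound then stimulated 4 h with 2.5 mM 2-deoxyglucose to activate AMPK. Lysates in M-PER with protease/phosphatase inhibitors assayed for P-EF2 by AlphaLISA; pIC50 = −log IC50 (M).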

Setting [4] is: single dose 1 μM compound, residual activity compared to control (DMSO).

Chain of Vps34 (PIK3C3 lipid kinase) (Q8NEB9 whole entry, species assumed): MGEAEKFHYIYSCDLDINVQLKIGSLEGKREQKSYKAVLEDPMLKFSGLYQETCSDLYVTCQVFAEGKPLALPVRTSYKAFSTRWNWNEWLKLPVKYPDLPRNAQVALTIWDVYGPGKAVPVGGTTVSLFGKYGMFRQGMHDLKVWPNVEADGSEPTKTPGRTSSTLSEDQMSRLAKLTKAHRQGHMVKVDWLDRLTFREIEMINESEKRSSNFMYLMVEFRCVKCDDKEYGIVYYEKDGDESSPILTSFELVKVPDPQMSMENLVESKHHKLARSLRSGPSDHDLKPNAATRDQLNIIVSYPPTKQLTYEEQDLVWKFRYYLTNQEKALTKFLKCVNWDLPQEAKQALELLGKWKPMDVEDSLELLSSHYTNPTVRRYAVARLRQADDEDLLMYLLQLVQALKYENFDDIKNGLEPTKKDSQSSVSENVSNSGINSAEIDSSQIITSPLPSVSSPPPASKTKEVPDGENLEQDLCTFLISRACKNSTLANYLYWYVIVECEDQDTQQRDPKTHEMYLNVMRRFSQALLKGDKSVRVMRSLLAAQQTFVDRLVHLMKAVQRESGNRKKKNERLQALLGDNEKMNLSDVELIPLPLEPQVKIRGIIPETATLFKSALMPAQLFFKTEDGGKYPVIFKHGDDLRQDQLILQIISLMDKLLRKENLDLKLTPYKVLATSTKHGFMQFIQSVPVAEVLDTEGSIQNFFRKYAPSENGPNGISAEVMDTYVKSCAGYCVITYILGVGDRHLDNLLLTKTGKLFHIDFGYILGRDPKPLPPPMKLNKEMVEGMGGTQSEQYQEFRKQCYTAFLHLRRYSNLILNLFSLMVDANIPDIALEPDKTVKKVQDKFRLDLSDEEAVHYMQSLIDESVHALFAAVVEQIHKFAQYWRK

Regarding `CN1CCN(C)c2ccc(cn2)-c2ccnc(n2)Nc2cccc(c2)CN2CCNC(CC1=O)C2` (centres unmarked) [Compound 72], the IC50 was 3.8e-06 M in experiment [1], 3.02e-07 M in experiment [2] and above 3.02e-05 M in experiment [3]. For the same compound, the remaining activity at 1 µM in experiment [2] (setting [4]) amounted to 11.5%.

With `O=C1CN2CCN(CC2)Cc2cccc(c2)Nc2nccc(n2)-c2ccc(nc2)NCCCN1` [Compound 31], the IC50 in experiment [1] is 1.07e-07 M; in experiment [2], 8.71e-08 M; in experiment [3], around 3.98e-06 M. In addition, the remaining activity at 1 µM in experiment [2] (setting [4]) was determined as 8.47%.

`CN1CCCN(C)c2ccc(cn2)-c2ccnc(n2)Nc2cccc(c2)CN2CCN(CC2)C(c2ccccc2)C1=O` (centres unmarked) [Compound 64]: the IC50 was 7.24e-07 M in experiment [1] and 2.63e-05 M in experiment [3]. In addition, the remaining activity at 1 µM in experiment [2] (setting [4]) is 64.6%.

Turning to `CNC(=O)c1ccc2cc1CN1CCN(CC1)CC(=O)N(C)CCCN(C)c1ccc(cn1)-c1ccnc(n1)N2` [Compound 12], the IC50 in experiment [1] was 2.09e-07 M; in experiment [2], 4.37e-07 M; in experiment [3], 1.05e-05 M. For the same compound, the remaining activity at 1 µM in experiment [2] (setting [4]) was 7.68%.

As to `CN1CCCN(C)c2ncc(cn2)-c2ccnc(n2)Nc2cccc(c2)CN2CCN(CC2)CC1=O` [Compound 84], the IC50 in experiment [1] is 2.88e-07 M; in experiment [3], 8.71e-06 M. The remaining activity at 1 µM in experiment [2] (setting [4]) turned out to be 30.6%.

For the compound `O=C1CN2CCN(CC2)Cc2cccc(c2)Nc2nccc(n2)-c2ccc(nc2)CN(CC2CCOCC2)CCN1` [Compound 39], the values for the IC50 in experiment [1] and in experiment [3] were 1.2e-06 M and 3.09e-06 M, respectively. For the same compound, in experiment [2] (setting [4]), the remaining activity at 1 µM was determined as 30.7%.

For `O=C1CNCCCNc2ccc(cn2)-c2ccnc(n2)Nc2cccc(c2)N2CCN1CC2` [Compound 111], the IC50 in experiment [1] is 4.47e-06 M; in experiment [2], 1.7e-07 M; in experiment [3] it was above 3.02e-05 M. The remaining activity at 1 µM in experiment [2] (setting [4]) was 1.43%.

Regarding `COC(=O)C1CN2CCN1Cc1cccc(c1)Nc1nccc(n1)-c1ccc(nc1)N(C)CCCN(C)C(=O)C2` (centres unmarked) [Compound 55], the IC50 is 1.45e-07 M in experiment [1], 8.91e-07 M in experiment [2] and above 3.02e-05 M in experiment [3].

As for `CC1CN2CCN1Cc1cccc(c1)Nc1nccc(n1)-c1ccc(nc1)NCCCNC(=O)C2` (single isomer, unassigned) [Compound 62], the IC50 in experiment [1] is 7.76e-08 M; in experiment [3], 2.04e-06 M. In addition, the VPS34_1microM_% of cntrl in experiment [2] (setting [4]) is 166.89 % of cntrl.

As for `CC1CN2CCN1Cc1cccc(c1)Nc1nccc(n1)-c1ccc(nc1)N(C)CCCN(C)C(=O)C2` (centres unmarked) [Compound 58], the IC50 in experiment [1] is 1.17e-07 M; in experiment [2] it was 4.27e-07 M; in experiment [3] it was 2.09e-06 M. In experiment [2] (setting [4]), the remaining activity at 1 µM was 15.9%.

Take `CN1CCCN(C)c2ccc(cn2)-c2ccnc(n2)Nc2cccc(c2)CN2CCN(CC1=O)C(CCO)C2` (centres unmarked) [Compound 63]: the IC50 in experiment [1] was 2.4e-07 M; in experiment [2], 3.24e-07 M; in experiment [3], above 3.02e-05 M. The remaining activity at 1 µM in experiment [2] (setting [4]) was determined as 16.4%.

With `CC1C(=O)N(C)CCCN(C)c2ccc(cn2)-c2ccnc(n2)Nc2cccc(c2)CN2CCN1CC2` (centres unmarked) [Compound 67], the IC50 in experiment [1] was 1.29e-07 M; in experiment [3] it was 3.89e-06 M. Besides, the remaining activity at 1 µM in experiment [2] (setting [4]) came out at 32.1%.

On to `CC1CN2CCN1CC(=O)NCCCNc1ccc(cn1)-c1ccnc(n1)Nc1cccc(c1)C2` (centres unmarked) [Compound 49], for which the IC50 in experiment [1] was 3.89e-07 M; in experiment [3], 2.34e-06 M. Besides, the remaining activity at 1 µM in experiment [2] (setting [4]) came out at 37.4%.

As to `CN(C)C(=O)c1ccc2cc1CN1CCN(CC1)CC(=O)N(C)CCCN(C)c1ccc(cn1)-c1ccnc(n1)N2` [Compound 17], the IC50 in experiment [1] is 1.1e-06 M; in experiment [3], above 3.02e-05 M. In addition, the remaining activity at 1 µM in experiment [2] (setting [4]) stood at 39.5%.

`CCCN1CCNC(=O)CN2CCN(CC2)Cc2cccc(c2)Nc2nccc(n2)-c2ccc(nc2)C1` [Compound 43]: the results for the IC50 in experiment [1], in experiment [2] and in experiment [3] were 6.17e-09 M, 1.07e-07 M and 1.91e-07 M, respectively. The remaining activity at 1 µM in experiment [2] (setting [4]) was 4.32%.

Regarding `CN1CCCN(C)c2ccc(cn2)-c2ccnc(n2)Nc2cccc(c2)CN2CCN(CC1=O)CC2CO` (centres unmarked) [Compound 51], the IC50 in experiment [1] is 1.55e-07 M; in experiment [2], 4.79e-07 M; in experiment [3] it was 1.55e-05 M. Further, the remaining activity at 1 µM in experiment [2] (setting [4]) stood at 14.6%.
